ChEMBL document CHEMBL1131503, “Design and synthesis of enantiomers of 3,5-dinitro-o-tyrosine: alpha-amino-3-hydroxy-5-methyl-4-isoxazolepropanoic acid (AMPA) receptor antagonists” (J Med Chem, 1998)

target: Glutamate receptor ionotropic, AMPA (Rattus norvegicus) (UniProt P19491+P19492+P19493+P19490); assay: The compound was tested for the % displacement of [3H]AMPA binding to Ionotropic glutamate receptor AMPA in rat brain membranes at a concentration of 100 uM; assay type: cell membranes

Row | SMILES | Displacement [%]
1 | NC(Cc1ccccc1OCC(=O)O)C(=O)O (centres undefined) | 20
2 | COc1c(CC(NC(=O)OC(C)(C)C)C(=O)O)cc([N+](=O)[O-])cc1[N+](=O)[O-] (centres undefined) | 26
3 | NC(Cc1cc([N+](=O)[O-])cc([N+](=O)[O-])c1O)C(=O)O (centres undefined) | 76
4 | CC(C)(C)OC(=O)NC(Cc1cc([N+](=O)[O-])cc([N+](=O)[O-])c1O)C(=O)O (centres undefined) | 17
5 | N[C@@H](Cc1cc([N+](=O)[O-])cc([N+](=O)[O-])c1O)C(=O)O | 78
6 | N[C@H](Cc1cc([N+](=O)[O-])cc([N+](=O)[O-])c1O)C(=O)O | 58

More lines, now with the values ahead:

Row | Displacement [%] | SMILES
7 | 66 | COc1c(CC(N)C(=O)O)cc([N+](=O)[O-])cc1[N+](=O)[O-] (centres undefined)
8 | 14 | CC(=O)NC(Cc1cc([N+](=O)[O-])cc([N+](=O)[O-])c1O)C(=O)O (centres undefined)
9 | 99 | O=[N+]([O-])c1cc2nc(O)c(O)nc2cc1[N+](=O)[O-]
